Results taken from ChEMBL document CHEMBL1128537, “The squalestatins: synthesis and biological activity of some C3-modified analogues; replacement of a carboxylic acid or methyl ester with an isoelectronic heterocyclic functionality” (J Med Chem, 1995).

Molecular target: T1, Squalene synthase (Rattus norvegicus, UniProt Q02769)
T1 sequence (Q02769 whole entry): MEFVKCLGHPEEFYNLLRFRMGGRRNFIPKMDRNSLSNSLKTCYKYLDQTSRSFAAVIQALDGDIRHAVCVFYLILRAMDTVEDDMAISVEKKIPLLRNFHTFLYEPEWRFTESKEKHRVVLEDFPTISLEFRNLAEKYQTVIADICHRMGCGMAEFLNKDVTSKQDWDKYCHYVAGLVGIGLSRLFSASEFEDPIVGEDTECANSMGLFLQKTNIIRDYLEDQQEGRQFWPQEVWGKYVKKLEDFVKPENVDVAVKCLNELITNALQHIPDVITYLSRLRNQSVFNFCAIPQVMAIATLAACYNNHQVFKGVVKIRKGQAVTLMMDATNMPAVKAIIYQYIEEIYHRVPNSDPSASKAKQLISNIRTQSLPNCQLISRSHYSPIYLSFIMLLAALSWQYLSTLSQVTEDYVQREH
Test: In vitro for inhibitory activity against Squalene synthase in rat

| IC50 [nM] | Compound |
| --- | --- |
| 156 | C=C(CC[C@]12O[C@H](c3nnn(C)n3)[C@@](O)(C(=O)O)[C@](C(=O)O)(O1)[C@H](O)[C@H]2O)[C@@H](C(C)=O)[C@H](C)Cc1ccccc1 |
| 220 | C=C(CC[C@]12O[C@H](C(=O)OC)[C@@](O)(C(=O)O)[C@](C(=O)O)(O1)[C@H](O)[C@H]2O)[C@@H](C(C)=O)[C@H](C)Cc1ccccc1 |
| 310 | C=C(CC[C@]12O[C@H](c3nc(C)no3)[C@@](O)(C(=O)O)[C@](C(=O)O)(O1)[C@H](O)[C@H]2O)[C@@H](C(C)=O)[C@H](C)Cc1ccccc1 |
| 442 | C=C(CC[C@]12O[C@H](c3nnnn3C)[C@@](O)(C(=O)O)[C@](C(=O)O)(O1)[C@H](O)[C@H]2O)[C@@H](C(C)=O)[C@H](C)Cc1ccccc1 |
| 25 | C=C(CC[C@]12O[C@H](c3nnn[nH]3)[C@@](O)(C(=O)O)[C@](C(=O)O)(O1)[C@H](O)[C@H]2O)[C@@H](C(C)=O)[C@H](C)Cc1ccccc1 |
| 357 | C=C(CC[C@]12O[C@H](c3csc(C)n3)[C@@](O)(C(=O)O)[C@](C(=O)O)(O1)[C@H](OC(=O)/C=C/[C@@H](C)C[C@@H](C)CC)[C@H]2O)[C@@H](C(C)=O)[C@H](C)Cc1ccccc1 |
| 2880 | C=C(CC[C@]12O[C@H](c3csc(C)n3)[C@@](O)(C(=O)O)[C@](C(=O)O)(O1)[C@H](O)[C@H]2O)[C@@H](C(C)=O)[C@H](C)Cc1ccccc1 |
| 505 | C=C(CC[C@]12O[C@H](c3cscn3)[C@@](O)(C(=O)O)[C@](C(=O)O)(O1)[C@H](O)[C@H]2O)[C@@H](C(C)=O)[C@H](C)Cc1ccccc1 |
| 1940 | C=C(CC[C@]12O[C@H](c3n[nH]c(=S)n3C)[C@@](O)(C(=O)O)[C@](C(=O)O)(O1)[C@H](O)[C@H]2O)[C@@H](C(C)=O)[C@H](C)Cc1ccccc1 |
| 10 | C=C(CC[C@]12O[C@H](c3nnc(NC)o3)[C@@](O)(C(=O)O)[C@](C(=O)O)(O1)[C@H](OC(=O)/C=C/[C@@H](C)C[C@@H](C)CC)[C@H]2O)[C@@H](C(C)=O)[C@H](C)Cc1ccccc1 |
| 92 | C=C(CC[C@]12O[C@H](c3cscn3)[C@@](O)(C(=O)O)[C@](C(=O)O)(O1)[C@H](OC(=O)/C=C/[C@@H](C)C[C@@H](C)CC)[C@H]2O)[C@@H](C(C)=O)[C@H](C)Cc1ccccc1 |
| 1180 | C=C(CC[C@]12O[C@H](c3csc(NC)n3)[C@@](O)(C(=O)O)[C@](C(=O)O)(O1)[C@H](O)[C@H]2O)[C@@H](C(C)=O)[C@H](C)Cc1ccccc1 |
| 312 | C=C(CC[C@]12O[C@H](c3nnc(C)[nH]3)[C@@](O)(C(=O)O)[C@](C(=O)O)(O1)[C@H](O)[C@H]2O)[C@@H](C(C)=O)[C@H](C)Cc1ccccc1 |
| 72 | C=C(CC[C@]12O[C@H](c3nc(C)no3)[C@@](O)(C(=O)O)[C@](C(=O)O)(O1)[C@H](OC(=O)/C=C/[C@@H](C)C[C@@H](C)CC)[C@H]2O)[C@@H](C(C)=O)[C@H](C)Cc1ccccc1 |
| 4 | C=C(CC[C@]12O[C@H](c3nnn[nH]3)[C@@](O)(C(=O)O)[C@](C(=O)O)(O1)[C@H](OC(=O)/C=C/[C@@H](C)C[C@@H](C)CC)[C@H]2O)[C@@H](C(C)=O)[C@H](C)Cc1ccccc1 |
| 7 | C=C(CC[C@]12O[C@H](C(=O)OC)[C@@](O)(C(=O)O)[C@](C(=O)O)(O1)[C@H](OC(=O)/C=C/[C@@H](C)C[C@@H](C)CC)[C@H]2O)[C@@H](C(C)=O)[C@H](C)Cc1ccccc1 |
| 43 | C=C(CC[C@]12O[C@H](c3nnn(C)n3)[C@@](O)(C(=O)O)[C@](C(=O)O)(O1)[C@H](OC(=O)/C=C/[C@@H](C)C[C@@H](C)CC)[C@H]2O)[C@@H](C(C)=O)[C@H](C)Cc1ccccc1 |
| 146 | C=C(CC[C@]12O[C@H](c3csc(NC)n3)[C@@](O)(C(=O)O)[C@](C(=O)O)(O1)[C@H](OC(=O)/C=C/[C@@H](C)C[C@@H](C)CC)[C@H]2O)[C@@H](C(C)=O)[C@H](C)Cc1ccccc1 |
| 57 | C=C(CC[C@]12O[C@H](c3nnnn3C)[C@@](O)(C(=O)O)[C@](C(=O)O)(O1)[C@H](OC(=O)/C=C/[C@@H](C)C[C@@H](C)CC)[C@H]2O)[C@@H](C(C)=O)[C@H](C)Cc1ccccc1 |
| 172 | C=C(CC[C@]12O[C@H](c3nnc(S)n3C)[C@@](O)(C(=O)O)[C@](C(=O)O)(O1)[C@H](OC(=O)/C=C/[C@@H](C)C[C@@H](C)CC)[C@H]2O)[C@@H](C(C)=O)[C@H](C)Cc1ccccc1 |
| 785 | C=C(CC[C@]12O[C@H](c3cnc[nH]3)[C@@](O)(C(=O)O)[C@](C(=O)O)(O1)[C@H](O)[C@H]2O)[C@@H](C(C)=O)[C@H](C)Cc1ccccc1 |
| 147 | C=C(CC[C@]12O[C@H](c3nnc(NC)o3)[C@@](O)(C(=O)O)[C@](C(=O)O)(O1)[C@H](O)[C@H]2O)[C@@H](C(C)=O)[C@H](C)Cc1ccccc1 |
| 63 | C=C(CC[C@]12O[C@H](c3csc(N)n3)[C@@](O)(C(=O)O)[C@](C(=O)O)(O1)[C@H](OC(=O)/C=C/[C@@H](C)C[C@@H](C)CC)[C@H]2O)[C@@H](C(C)=O)[C@H](C)Cc1ccccc1 |
